The values below come from patent US12697290B2, “Cosmetic compounds having two linked maleimide groups, cosmetic preparations, and method for treatment of keratin materials” (TARA BRANDS EUROPE S.L.U., priority 2022, dated 2026).

A short description of the experiment: Thiol recombination: reaction of test compound with cysteine reagent, conversion into mono- and bis-Michael-addition products monitored by LC-MS. The note with it: 30° C.; for Conversion at 15 min, bis-Michael-addition product (bis) / Conversion at 15 min, mono-Michael-addition product (mono) / Conversion at 30 min, bis-Michael-addition product (bis) / Conversion at 30 min, mono-Michael-addition product (mono) / Conversion at 60 min, bis-Michael-addition product (bis) / Conversion at 60 min, mono-Michael-addition product (mono): test solution 1 (pH=5.4), 0.05M. From the text: N-Fmoc-cysteine (hereinafter C1) or N-Cbz-cysteine (hereinafter C2) were obtained by reduction of their cysteine counterparts via a literature known method. Adv. Syn. Catal., 2020, 362, 5093-5104. DOI: 10.1002/adsc.202000716. “OLAPLEX® No. 0 Intensive Bond Building Hair Treatment” is a commercially available product which comprises an active agent, water, phenoxyethanol and sodium benzoate. The active agent is hereinafter labelled “Olaplex active agent” or “reference compound #2”.
The compound to be tested (1 eq.) was dissolved in an aqueous media (0.02-0.05 M) and 4 eq. of cysteine reagent (N-Fmoc-cysteine (C1) or N-Cbz-cysteine (C2)) were added. Two test solutions were used as aqueous media: test solution 1 was a phosphate buffer (pH=5.4) with or without an emulsifier (e.g. Eumulgin) and test solution 2 was an aqueous solution containing 0.49% (w/w) sodium benzoate and 0.30% (w/w) citric acid with or without an emulsifier (e.g. Eumulgin).
To make the phosphate buffer a solution of 0.1-M solution of citric acid (use citric acid monohydrate) and a 0.2-M solution of Na2HPO4 (use Na2HPO4 or Na2HPO4*2H2O) were prepared and mixed with the following ratio: 44.25 mL/55.75 mL=mL 0.1M-citric acid/mL 0.2M Na2HPO4 to give a buffer solution with pH=5.4.
The tests were performed at ambient temperature of 30° C. under stirring with small magnetic stirrers in LC-MS vials or small glass vials (see picture 1). The reactions were performed under normal atmosphere. The reactions were monitored by LC-MS. The reaction scale was between 4 and 10 mg of tested compound. To calculate the conversion into products the ratio between cysteine reagent, mono-Michael-addition product (mono) and bis-Michael-addition product (bis) as shown in the following schemes were compared.

Where [1] appears, read: test solution 1 (pH=5.4)+1% eumulgin, 0.02M.
The mark [2] stands for this setting: test solution 1 (pH=5.4)+1% eumulgin, 0.02M, 60 min.
[3] abbreviates: test solution 1 (pH=5.4)+2.5% eumulgin, 0.02M.
The mark [4] stands for this setting: test solution 1 (pH=5.4)+2.5% eumulgin, 0.02M, 60 min.
Setting [5] is: test solution 2+1% Eumulgin, 0.02M.
Setting [6] is: test solution 2+1% Eumulgin, 0.02M, 60 min.

With `O=C1C=CC(=O)N1CCCOCCOCCOCCCN1C(=O)C=CC1=O` [Reference compound #1, reference compound], the “Conversion at 15 min, bis-Michael-addition product (bis)” value (from here on “Conversion at 15 min … (bis)”) is recorded as 9% bis; the “Conversion at 15 min, mono-Michael-addition product (mono)” value (shortened to “Conversion at 15 min … (mono)”) is given as 0% mono; the “Conversion at 30 min, bis-Michael-addition product (bis)” value (“Conversion at 30 min … (bis)” for short) is reported as 10% bis; the “Conversion at 30 min, mono-Michael-addition product (mono)” value (shortened to “Conversion at 30 min … (mono)”) is 0% mono. Moreover, under setting [1], the “Conversion at 30 min, bis” value is 50% bis and the “Conversion at 30 min, mono” value was 0% mono. Further, under setting [2], the “Conversion at 60 min, bis” value worked out at 60% bis and the “Conversion at 60 min, mono” value amounted to 0% mono. Under setting [3], the “Conversion at 30 min, bis” value is listed as 97% bis and the “Conversion at 5 h, bis” value was 82% bis. For the same compound, the “Conversion at 60 min, bis” value under setting [4] was found to be 88% bis. Further, for the setting “60 min”, the “Conversion at 60 min, bis-Michael-addition product (bis)” value (“Conversion at 60 min … (bis)” for short) came to 22% bis and the “Conversion at 60 min, mono-Michael-addition product (mono)” value (“Conversion at 60 min … (mono)” below) stood at 29% mono. For the same compound, under setting [5], the “Conversion at 30 min, bis” value was 30% bis and the “Conversion at 30 min, mono” value is reported as 30% mono. Further, under setting [6], the “Conversion at 60 min, bis” value is on record as 56% bis and the “Conversion at 60 min, mono” value came out at 9% mono.

Regarding `O=C1C=CC(=O)N1CCCOCC12CC(COCCCN3C(=O)C=CC3=O)(C1)C2` [SPC-TB-0001], the “Conversion at 15 min … (bis)” value came out at 15% bis; the “Conversion at 15 min … (mono)” value is on record as 0% mono; the “Conversion at 30 min … (bis)” value was 28% bis; the “Conversion at 30 min … (mono)” value is 0% mono. Moreover, under “60 min”, the “Conversion at 60 min … (bis)” value turned out to be 21% bis and the “Conversion at 60 min … (mono)” value is reported as 0% mono.

As for `O=C1C=CC(=O)N1CCOCC12CC(COCCN3C(=O)C=CC3=O)(C1)C2` [SPC-TB-0002, 1,1′-(((bicyclo[1.1.1]pentane-1,3-diylbis(methylene))bis(oxy))bis(ethane-2,1-diyl))bis(1H-pyrrole-2,5-dione)], the “Conversion at 15 min … (bis)” value came out at 17% bis; the “Conversion at 15 min … (mono)” value is given as 0% mono; the “Conversion at 30 min … (bis)” value is 11% bis; the “Conversion at 30 min … (mono)” value worked out at 0% mono. For the same compound, under “60 min”, the “Conversion at 60 min … (bis)” value is given as 10% bis and the “Conversion at 60 min … (mono)” value came to 0% mono.

For `O=C1C=CC(=O)N1CCCOCC12CCC(COCCCN3C(=O)C=CC3=O)(CC1)CC2` [SPC-TB-0003], the “Conversion at 15 min … (bis)” value stood at 29% bis; the “Conversion at 15 min … (mono)” value was 9% mono; the “Conversion at 30 min … (bis)” value turned out to be 77% bis; the “Conversion at 30 min … (mono)” value turned out to be 10% mono.

Regarding `O=C1C=CC(=O)N1CCOCCOCC12CC(COCCOCCN3C(=O)C=CC3=O)(C1)C2` [SPC-TB-0007, 1,1′-(((((bicyclo[1.1.1]pentane-1,3-diylbis(methylene))bis(oxy))bis(ethane-2,1-diyl))bis(oxy))bis(ethane-2,1-diyl))bis(1H-pyrrole-2,5-dione)], the “Conversion at 15 min … (bis)” value turned out to be 24% bis; the “Conversion at 15 min … (mono)” value stood at 47% mono; the “Conversion at 30 min … (bis)” value amounted to 22% bis; the “Conversion at 30 min … (mono)” value was 66% mono. Under setting [1], the “Conversion at 30 min, bis” value stood at 53% bis and the “Conversion at 30 min, mono” value came out at 20% mono. In addition, under setting [2], the “Conversion at 60 min, bis” value worked out at 67% bis and the “Conversion at 60 min, mono” value came out at 9% mono. Besides, under setting [3], the “Conversion at 30 min, bis” value was found to be 79% bis and the “Conversion at 5 h, bis” value is given as 73% bis. In addition, under setting [4], the “Conversion at 60 min, bis” value stood at 79% bis. In addition, under “60 min”, the “Conversion at 60 min … (bis)” value turned out to be 50% bis and the “Conversion at 60 min … (mono)” value was found to be 37% mono. In addition, under setting [5], the “Conversion at 30 min, bis” value came out at 26% bis and the “Conversion at 30 min, mono” value came out at 26% mono. Also, under setting [6], the “Conversion at 60 min, bis” value was determined as 44% bis and the “Conversion at 60 min, mono” value is reported as 10% mono.

As to `O=C1C=CC(=O)N1CCOCCOCCOCC12CC(COCCOCCOCCN3C(=O)C=CC3=O)(C1)C2` [SPC-TB-0013], under setting [1], the “Conversion at 30 min, bis” value worked out at 67% bis and the “Conversion at 30 min, mono” value is listed as 16% mono. Besides, under setting [2], the “Conversion at 60 min, bis” value amounted to 66% bis and the “Conversion at 60 min, mono” value was determined as 15% mono. Moreover, under setting [3], the “Conversion at 30 min, bis” value is given as 57% bis and the “Conversion at 5 h, bis” value is given as 46% bis. Moreover, the “Conversion at 60 min, bis” value under setting [4] was 57% bis. Further, under setting [5], the “Conversion at 30 min, bis” value turned out to be 36% bis and the “Conversion at 30 min, mono” value worked out at 10% mono. For the same compound, the “Conversion at 60 min, mono and bis” value (test solution 2+1% Eumulgin, 0.02M, 60 min, mono and bis together, peaks are not separated in LC-MS) is 50% mono and bis*.
